Data published in ChEMBL document CHEMBL6074715, “Discovery of pyridine-based derivatives as FLT3 inhibitors for the treatment of acute myeloid leukemia” (Eur J Med Chem, 2025).
Activity calls are given as the source filed them. The calls are words filed in the database; no cut-off is given here.

Legend:
[1] = target: Tyrosine-protein kinase BTK (Homo sapiens) (UniProt Q06187); experiment: Inhibition of human BTK at 1 uM by Eurofins kinase assay
[2] = target: Fibroblast growth factor receptor 4 (Homo sapiens) (UniProt P22455); experiment: Inhibition of human FGFR4 at 1 uM by Eurofins kinase assay
[3] = Toxicity in female NSG mouse assessed as effect on heart at 20 to 40 mg/kg, po measured after 21 days by H and E staining based analysis; assay type: organism-based; settings: in vivo, 504 h, dose 20-40 mg/kg, time 21 day
[4] = target: Angiopoietin-1 receptor (Homo sapiens) (UniProt Q02763); experiment: Inhibition of human […] at 1 uM by Eurofins kinase assay
[5] = target: Fibroblast growth factor receptor 2 (Homo sapiens) (UniProt P21802); experiment: Inhibition of human FGFR2 at 1 uM by Eurofins kinase assay
[6] = target: Fibroblast growth factor receptor 3 (Homo sapiens) (UniProt P22607); experiment: Inhibition of human FGFR3 at 1 uM by Eurofins kinase assay
Chain of Fibroblast growth factor receptor 3 (Homo sapiens) (P22607 23-806 limits assumed): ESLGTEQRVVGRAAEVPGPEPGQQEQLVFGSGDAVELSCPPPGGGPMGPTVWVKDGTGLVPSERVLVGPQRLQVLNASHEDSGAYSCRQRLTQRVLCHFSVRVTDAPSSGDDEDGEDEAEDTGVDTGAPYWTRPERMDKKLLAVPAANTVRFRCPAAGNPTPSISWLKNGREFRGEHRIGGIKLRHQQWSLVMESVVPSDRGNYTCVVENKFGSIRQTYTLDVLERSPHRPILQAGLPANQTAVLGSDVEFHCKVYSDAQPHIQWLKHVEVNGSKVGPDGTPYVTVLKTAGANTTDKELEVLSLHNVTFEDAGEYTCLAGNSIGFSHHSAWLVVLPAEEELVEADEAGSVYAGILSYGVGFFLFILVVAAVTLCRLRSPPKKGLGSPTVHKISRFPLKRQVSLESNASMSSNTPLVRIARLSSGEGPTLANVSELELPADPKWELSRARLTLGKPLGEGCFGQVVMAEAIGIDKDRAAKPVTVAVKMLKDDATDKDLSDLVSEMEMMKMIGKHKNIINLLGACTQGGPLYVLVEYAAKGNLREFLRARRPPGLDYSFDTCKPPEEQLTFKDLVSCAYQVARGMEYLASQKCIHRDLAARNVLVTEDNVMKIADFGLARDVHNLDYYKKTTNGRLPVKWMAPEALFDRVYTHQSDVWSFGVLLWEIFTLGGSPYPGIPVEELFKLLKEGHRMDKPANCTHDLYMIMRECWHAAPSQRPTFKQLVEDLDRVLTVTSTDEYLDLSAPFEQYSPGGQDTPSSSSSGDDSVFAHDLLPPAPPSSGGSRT

[7] = target: Serine/threonine-protein kinase WNK1 (Homo sapiens) (UniProt Q9H4A3); experiment: Inhibition of human WNK1 at 1 uM by Eurofins kinase assay
[8] = target: Aurora kinase A (Homo sapiens) (UniProt O14965); experiment: Inhibition of human AuroraA at 1 uM by Eurofins kinase assay
Chain of Aurora kinase A (Homo sapiens) (O14965 whole entry): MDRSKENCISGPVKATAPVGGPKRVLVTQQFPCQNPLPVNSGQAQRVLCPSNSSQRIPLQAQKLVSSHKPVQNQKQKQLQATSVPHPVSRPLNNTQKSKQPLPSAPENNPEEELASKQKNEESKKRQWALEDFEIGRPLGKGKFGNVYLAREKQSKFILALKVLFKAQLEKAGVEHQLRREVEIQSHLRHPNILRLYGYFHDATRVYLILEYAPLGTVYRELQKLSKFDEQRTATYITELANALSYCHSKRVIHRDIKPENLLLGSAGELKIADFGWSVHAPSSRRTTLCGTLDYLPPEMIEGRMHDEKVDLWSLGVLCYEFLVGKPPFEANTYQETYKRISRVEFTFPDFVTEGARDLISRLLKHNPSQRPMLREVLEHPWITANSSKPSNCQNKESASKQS

[9] = Antiproliferative activity against human PBMC cells assessed as inhibition of cell growth measured after 72 hrs by Celltiter-glo luminescent cell viability assay; assay type: toxicity, cell-based
MOLM-13 [10] = experiment: Induction of apoptosis in human MOLM-13 cells assessed as necrotic cells at 1 uM measured after 48 hrs by annexin-V and PI staining based flow cytometry analysis (reference value: 0.087%); assay type: functional
[11] = Toxicity in female NSG mouse assessed as effect on lung at 20 to 40 mg/kg, po measured after 21 days by H and E staining based analysis; assay type: organism-based; settings: in vivo, 504 h, dose 20-40 mg/kg, time 21 day
[12] = target: T1, Vascular endothelial growth factor receptor 3 (Homo sapiens, UniProt P35916); experiment: Inhibition of FLT4 (unknown origin) preincubated for 10 mins followed by addition of peptide solution by caliper mobility shift assay
T1 sequence (P35916 whole entry): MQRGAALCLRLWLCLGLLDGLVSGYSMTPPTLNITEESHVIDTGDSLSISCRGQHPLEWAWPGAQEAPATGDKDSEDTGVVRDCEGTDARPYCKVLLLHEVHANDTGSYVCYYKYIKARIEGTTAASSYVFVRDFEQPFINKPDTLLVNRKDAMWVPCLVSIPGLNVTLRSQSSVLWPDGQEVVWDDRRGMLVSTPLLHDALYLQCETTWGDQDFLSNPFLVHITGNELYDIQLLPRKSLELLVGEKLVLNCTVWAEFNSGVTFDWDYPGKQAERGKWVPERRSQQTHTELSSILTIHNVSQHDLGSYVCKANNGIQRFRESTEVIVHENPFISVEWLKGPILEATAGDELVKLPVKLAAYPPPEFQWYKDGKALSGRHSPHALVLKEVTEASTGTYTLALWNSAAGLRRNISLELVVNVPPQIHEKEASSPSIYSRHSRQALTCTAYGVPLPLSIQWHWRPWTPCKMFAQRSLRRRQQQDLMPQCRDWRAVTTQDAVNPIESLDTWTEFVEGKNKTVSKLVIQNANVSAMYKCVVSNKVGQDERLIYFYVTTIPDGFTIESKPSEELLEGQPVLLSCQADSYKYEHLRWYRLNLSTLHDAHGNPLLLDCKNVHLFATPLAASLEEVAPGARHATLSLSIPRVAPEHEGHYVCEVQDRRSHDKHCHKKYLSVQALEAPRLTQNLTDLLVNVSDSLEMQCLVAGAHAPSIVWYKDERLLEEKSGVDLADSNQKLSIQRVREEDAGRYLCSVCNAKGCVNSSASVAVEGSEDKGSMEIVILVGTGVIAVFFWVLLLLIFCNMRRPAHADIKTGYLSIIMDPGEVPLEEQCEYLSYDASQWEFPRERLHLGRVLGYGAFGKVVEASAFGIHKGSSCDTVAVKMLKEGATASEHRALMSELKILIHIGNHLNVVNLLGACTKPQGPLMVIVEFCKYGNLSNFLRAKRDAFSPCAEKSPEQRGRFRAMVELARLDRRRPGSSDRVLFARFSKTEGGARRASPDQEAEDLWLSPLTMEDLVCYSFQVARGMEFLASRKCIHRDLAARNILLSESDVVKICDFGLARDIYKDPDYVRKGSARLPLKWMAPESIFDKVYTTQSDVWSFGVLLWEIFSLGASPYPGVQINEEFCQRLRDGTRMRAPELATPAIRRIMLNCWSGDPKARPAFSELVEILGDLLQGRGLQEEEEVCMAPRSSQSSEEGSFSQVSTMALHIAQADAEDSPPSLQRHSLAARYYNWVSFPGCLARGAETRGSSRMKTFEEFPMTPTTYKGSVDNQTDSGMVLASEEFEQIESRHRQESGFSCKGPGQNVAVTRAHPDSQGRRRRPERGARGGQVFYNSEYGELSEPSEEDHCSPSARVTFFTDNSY

[13] = target: Receptor-type tyrosine-protein kinase FLT3 (Homo sapiens) (UniProt P36888); experiment: Inhibition of FLT3 phosphorylation in human MOLM-13 cells incubated for 2 hrs by Western blot analysis; assay type: cell-based; settings: dose 0.04-5 µM
MOLM-13 [14] = experiment: Induction of cell cycle arrest in human MOLM-13 cells assessed as accumulation of cells at G2 phase at 0.3 uM measured after 48 hrs by PI staining based flow cytometry analysis (reference value: 12.5%); assay type: functional
[15] = Volume of distribution in Sprague-Dawley rat at 5 mg/kg, iv measured upto 48 hrs by LC-MS/MS analysis; assay type: ADME, organism-based; settings: in vivo
HL-60 = experiment: Antiproliferative activity against human HL-60 cells harbouring wild type FLT3 assessed as inhibition of cell growth measured after 72 hrs by Celltiter-glo luminescent cell viability assay; assay type: functional, cell-based; settings: HL-60, 72 h
MOLM-13 [16] = experiment: Antitumor activity against human MOLM-13 cells xenografted in female NSG mouse model assessed as delay in tumor growth at 20 to 40 mg/kg/day, po measured after 21 days; assay type: functional, organism-based; settings: dose 20-40 mg/kg/day, time 21.0 day
[17] = target: T2, Macrophage colony-stimulating factor 1 receptor (Homo sapiens, UniProt P07333); experiment: Inhibition of FMS (unknown origin) preincubated for 10 mins followed by addition of peptide solution by caliper mobility shift assay
T2 sequence (P07333 whole entry): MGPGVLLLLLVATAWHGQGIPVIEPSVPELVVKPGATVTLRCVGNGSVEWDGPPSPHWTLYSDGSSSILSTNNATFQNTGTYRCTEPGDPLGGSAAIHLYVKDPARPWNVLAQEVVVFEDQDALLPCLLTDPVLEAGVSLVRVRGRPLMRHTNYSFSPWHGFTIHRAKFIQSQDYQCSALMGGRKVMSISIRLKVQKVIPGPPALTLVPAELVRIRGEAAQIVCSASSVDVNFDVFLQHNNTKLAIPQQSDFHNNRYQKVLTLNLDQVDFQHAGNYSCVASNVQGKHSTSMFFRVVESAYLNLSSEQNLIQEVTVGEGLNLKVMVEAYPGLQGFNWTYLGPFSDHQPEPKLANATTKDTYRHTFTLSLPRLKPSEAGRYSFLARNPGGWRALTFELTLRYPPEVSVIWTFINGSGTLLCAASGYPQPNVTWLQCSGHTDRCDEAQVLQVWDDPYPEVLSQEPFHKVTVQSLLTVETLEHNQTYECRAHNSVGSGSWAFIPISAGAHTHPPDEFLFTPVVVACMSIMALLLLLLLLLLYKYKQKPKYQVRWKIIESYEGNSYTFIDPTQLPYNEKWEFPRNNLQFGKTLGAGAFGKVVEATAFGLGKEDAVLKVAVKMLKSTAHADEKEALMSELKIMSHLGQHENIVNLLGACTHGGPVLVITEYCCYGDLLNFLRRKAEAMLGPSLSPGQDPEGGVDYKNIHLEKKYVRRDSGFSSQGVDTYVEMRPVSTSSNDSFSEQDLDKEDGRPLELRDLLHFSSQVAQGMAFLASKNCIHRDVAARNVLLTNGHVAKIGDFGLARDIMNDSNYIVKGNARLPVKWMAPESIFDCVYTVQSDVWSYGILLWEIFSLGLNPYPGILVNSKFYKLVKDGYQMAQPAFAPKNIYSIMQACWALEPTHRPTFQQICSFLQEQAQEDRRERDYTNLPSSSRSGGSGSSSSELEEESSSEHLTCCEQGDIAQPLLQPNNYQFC

MOLM-13 [18] = experiment: Effect on STAT5 level in human MOLM-13 cells at 0.04 to 5 nM measured after 2 hrs by Western blot analysis; assay type: functional, cell-based; settings: dose 0.04-5 nM
MOLM-13 [19] = experiment: Induction of cell cycle arrest in human MOLM-13 cells assessed as accumulation of cells at G1 phase at 3 uM measured after 48 hrs by PI staining based flow cytometry analysis (reference value: 42.8%); assay type: functional
[20] = target: Receptor-interacting serine/threonine-protein kinase 1 (Homo sapiens) (UniProt Q13546); experiment: Inhibition of human RIPK1 at 1 uM by Eurofins kinase assay
THP-1 = experiment: Antiproliferative activity against human THP-1 cells harbouring wild type FLT3 assessed as inhibition of cell growth measured after 72 hrs by Celltiter-glo luminescent cell viability assay; assay type: functional, cell-based; settings: THP-1, 72 h
[21] = Toxicity in female NSG mouse assessed as effect on kidney at 20 to 40 mg/kg, po measured after 21 days by H and E staining based analysis; assay type: organism-based; settings: in vivo, 504 h, dose 20-40 mg/kg, time 21 day
MOLM-13 [22] = experiment: Antiproliferative activity against human MOLM-13 cells assessed as inhibition of cell growth measured after 72 hrs by Celltiter-glo luminescent cell viability assay; assay type: functional, cell-based; settings: MOLM-13, 72 h
[23] = AUC (0 to t) in Sprague-Dawley rat at 5 mg/kg, iv measured upto 48 hrs by LC-MS/MS analysis; assay type: ADME, organism-based; settings: in vivo
[24] = AUC (0 to infinity) in Sprague-Dawley rat at 20 mg/kg, po measured upto 48 hrs by LC-MS/MS analysis; assay type: ADME, organism-based; settings: in vivo
[25] = Clearance in Sprague-Dawley rat at 5 mg/kg, iv measured upto 48 hrs by LC-MS/MS analysis; assay type: ADME, organism-based; settings: in vivo
[26] = target: T2, Macrophage colony-stimulating factor 1 receptor; experiment: Inhibition of human FMS assessed as residual activity at 1 uM by Eurofins kinase assay relative to control
[27] = target: Wee1-like protein kinase (Homo sapiens) (UniProt P30291); experiment: Inhibition of human Wee1 at 1 uM by Eurofins kinase assay
Chain of Wee1-like protein kinase (Homo sapiens) (P30291 whole entry, looked up): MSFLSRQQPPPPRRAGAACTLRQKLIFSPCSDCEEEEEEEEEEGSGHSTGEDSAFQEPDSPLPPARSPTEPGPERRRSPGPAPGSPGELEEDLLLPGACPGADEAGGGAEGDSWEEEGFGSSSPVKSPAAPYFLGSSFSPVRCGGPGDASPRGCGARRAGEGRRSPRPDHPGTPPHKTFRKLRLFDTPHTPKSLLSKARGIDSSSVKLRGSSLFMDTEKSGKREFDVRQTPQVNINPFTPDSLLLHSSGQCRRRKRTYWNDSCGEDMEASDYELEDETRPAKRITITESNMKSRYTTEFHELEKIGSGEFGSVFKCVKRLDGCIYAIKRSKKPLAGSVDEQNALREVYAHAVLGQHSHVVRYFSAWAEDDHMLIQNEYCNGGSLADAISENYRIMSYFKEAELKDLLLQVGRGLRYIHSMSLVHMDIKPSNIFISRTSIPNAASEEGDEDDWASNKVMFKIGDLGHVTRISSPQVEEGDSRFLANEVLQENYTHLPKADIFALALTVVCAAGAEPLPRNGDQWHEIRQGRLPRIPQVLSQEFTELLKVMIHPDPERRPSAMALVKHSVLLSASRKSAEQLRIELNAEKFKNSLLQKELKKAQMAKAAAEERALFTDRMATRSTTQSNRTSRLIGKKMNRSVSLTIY

MOLM-13 [28] = experiment: Induction of apoptosis in human MOLM-13 cells assessed as early apoptotic cells at 0.3 uM measured after 48 hrs by annexin-V and PI staining based flow cytometry analysis (reference value: 8.92%); assay type: functional
MOLM-13 [29] = experiment: Effect on FLT3 level in human MOLM-13 cells at 0.04 to 5 nM measured after 2 hrs by Western blot analysis; assay type: functional, cell-based; settings: dose 0.04-5 nM
[30] = tested on: Mast/stem cell growth factor receptor Kit (Homo sapiens), P10721 [V654A]; experiment: Inhibition of human c-kit V654A mutant at 1 uM by Eurofins kinase assay
[31] = target: T1, Vascular endothelial growth factor receptor 3; experiment: Inhibition of human FLT4 assessed as residual activity at 1 uM by Eurofins kinase assay relative to control
BaF3 = experiment: Antiproliferative activity against mouse BaF3 cells harbouring TEL-VEGFR2 assessed as inhibition of cell growth measured after 72 hrs by Celltiter-glo luminescent cell viability assay; assay type: functional, cell-based; settings: BaF3, 72 h
K562 = experiment: Antiproliferative activity against human K562 cells assessed as inhibition of cell growth measured after 72 hrs by Celltiter-glo luminescent cell viability assay; assay type: functional, cell-based; settings: K562, 72 h
[32] = target: Tyrosine-protein kinase ABL1 (Homo sapiens) (UniProt P00519); experiment: Inhibition of human ABL1 at 1 uM by Eurofins kinase assay
MOLM-13 [33] = experiment: Induction of apoptosis in human MOLM-13 cells assessed as necrotic cells at 3 uM measured after 48 hrs by annexin-V and PI staining based flow cytometry analysis (reference value: 0.087%); assay type: functional
MOLM-13 [34] = experiment: Inhibition of STAT5 phosphorylation in human MOLM-13 cells incubated for 2 hrs by Western blot analysis; assay type: cell-based; settings: dose 0.04-5 µM
[35] = target: Tyrosine-protein kinase receptor UFO (Homo sapiens) (UniProt P30530); experiment: Inhibition of human AXL at 1 uM by Eurofins kinase assay
Chain of Tyrosine-protein kinase receptor UFO (Homo sapiens) (P30530 whole entry): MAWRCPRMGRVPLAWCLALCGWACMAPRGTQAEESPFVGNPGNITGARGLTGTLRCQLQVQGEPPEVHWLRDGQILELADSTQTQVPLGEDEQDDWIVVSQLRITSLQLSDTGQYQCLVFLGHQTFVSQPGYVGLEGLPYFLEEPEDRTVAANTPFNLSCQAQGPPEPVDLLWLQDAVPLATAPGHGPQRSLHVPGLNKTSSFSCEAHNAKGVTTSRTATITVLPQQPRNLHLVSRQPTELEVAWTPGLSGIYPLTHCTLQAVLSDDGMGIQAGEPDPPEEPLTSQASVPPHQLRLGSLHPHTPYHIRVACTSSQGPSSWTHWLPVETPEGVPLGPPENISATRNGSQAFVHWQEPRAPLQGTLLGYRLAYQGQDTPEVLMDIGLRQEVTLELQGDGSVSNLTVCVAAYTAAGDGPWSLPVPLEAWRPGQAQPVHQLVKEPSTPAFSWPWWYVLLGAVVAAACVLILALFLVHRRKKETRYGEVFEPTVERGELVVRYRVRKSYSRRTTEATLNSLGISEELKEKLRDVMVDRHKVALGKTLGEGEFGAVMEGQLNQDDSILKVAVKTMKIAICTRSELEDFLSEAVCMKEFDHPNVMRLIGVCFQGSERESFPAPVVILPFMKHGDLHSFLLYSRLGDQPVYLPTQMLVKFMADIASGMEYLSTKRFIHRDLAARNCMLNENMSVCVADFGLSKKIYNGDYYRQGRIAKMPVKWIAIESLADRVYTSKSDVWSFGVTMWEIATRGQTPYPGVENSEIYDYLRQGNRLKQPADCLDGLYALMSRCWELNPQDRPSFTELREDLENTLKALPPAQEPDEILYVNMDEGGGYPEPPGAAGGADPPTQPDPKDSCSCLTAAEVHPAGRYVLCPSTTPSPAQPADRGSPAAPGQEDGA

O=C(Nc1ccc(Oc2ccnc(NC(=O)N3CC(O)C3)c2)c(F)c1)c1cn(-c2cccnc2)nn1
inhibition [1]: inactive | inhibition [2]: inactive | Activity [3]: Non-toxic | inhibition [4]: inactive | inhibition [5]: inactive | inhibition [6]: inactive | inhibition [7]: inactive | inhibition [8]: inactive | IC50 at 72 h [9]: > 30 µM | Activity (MOLM-13 [10]): 0.26% | Activity [11]: Non-toxic | IC50 [12]: 0.475 µM | inhibition [13]: Dose-dependent-effect | Activity (MOLM-13 [14]): 4.21% | Vd [15]: 0.301 L/kg | IC50 (HL-60): 7.7 µM | Activity (MOLM-13 [16]): Active | IC50 [17]: 0.131 µM | Activity (MOLM-13 [18]): Not active; Compound Barely Affect Stat5 Level | Activity (MOLM-13 [19]): 89.9% | inhibition [20]: inactive | IC50 (THP-1): 10.8 µM | Activity [21]: Non-toxic | IC50 (MOLM-13 [22]): 0.062 µM | AUC(0-t) at 48 h [23]: 59.3 µg·h/mL | AUC(0-inf) [24]: 46.1 µg·h/mL | clearance [25]: 0.0846 L/h/kg | Activity [26]: 22% | inhibition [27]: inactive | Activity (MOLM-13 [28]): 25% | Activity (MOLM-13 [29]): Not active; Compound Barely Affect Flt3 Level | inhibition [30]: inactive | Activity [31]: 22% | IC50 (BaF3): 0.29 µM | IC50 (K562): 16.6 µM | inhibition [32]: inactive | Activity (MOLM-13 [33]): 0.097% | inhibition (MOLM-13 [34]): Dose-dependent-effect | inhibition [35]: inactive
